Measured values reported in patent publication US6872805B2 (Bristol-Myers Squibb Company, priority 2000, dated 2005).

Assays:
[1] = test system: HCV replicon in Huh7 cells; assay: HCV replicon cell-based assay; design: species or system HCV strain 1B; details: Hepatitis C virus, Huh-7, 96 h; HCV replicon, Huh7 cells, 4 days; activity ranges; read-out: EC50
From the text: An HCV replicon whole cell system was established as described by Lohmann V, Korner F, Koch J, Herian U, Theilmann L, Bartenschlager R., Science 285(5424):110-3 (1999). This system enabled us to evaluate the effects of our HCV Protease compounds on HCV RNA replication. Briefly, using the HCV strain 1B sequence described in the Lohmann paper (Assession number:AJ238799), an HCV cDNA was generated encoding the 5′ internal ribosome entry site (IRES), the neo gene, the EMCV-IRES and the HCV nonstructural proteins, NS3-NS5B, and 3′ NTR. […] Resulting cell lines were characterized for positive and negative RNA production and protein production over time.
Huh7 cells, constitutively expressing the HCV replicon, were grown in DMEM containing 10% FCS (Fetal calf serum) and 1 mg/ml G418 (Gibco-BRL). Cells were seeded the night before (1.5×10^4 cells/well) in 96-well tissue-culture sterile plates. Compound was prepared in DMEM containing 4% FCS, 1:100 Penicillin/Streptomysin, 1:100 L-glutamine and 0.5% DMSO. Compound/DMSO mixes were added to the cells and incubated for 4 days at 37° C. After 4 days, cells were either lyzed using the Rneasy kit (Qiagen) to isolate and purify RNA for an EC50 determination or assessed for cytotoxicity using alamar Blue (Trek Diagnotstic Systems) for a CC50 reading. For an EC50 determination, purified total RNA was normalized using RiboGreen (Jones L J, Yue S T, Cheung C Y, Singer V L, Anal. Chem., 265(2):368-74 (1998)) and relative quantitation of HCV RNA expression assessed using the Taqmann procedure (Kolykhalov A A, Mihalik K, Feinstone S M, Rice C M, Journal of Virology 74, 2046-2051 (2000)). Briefly, RNA made to a volume of 5 μl (≦1 ng) was added to a 20 μl Ready-Mix containing the following: 5×EZ rTth buffer, 3 mM MnOAc2, 3 mM dNTPs, 200 nM forward primer, 600 nM reverse primer, 100 nM probe and rTth polymerase. Samples containing known concentrations of HCV RNA transcript were run as standards. Using the following cycling protocol (95° C., 1 min; 60° C., 0.5 min; 95° C., 2 min; 40 cycles of 94° C., 0.5 min, 60° C.; 1 min; and completing with 60° C., 10 min), HCV RNA expression was quantitated as described in the Perkin Elmer manual. The toxicity of compound (CC50) was determined by adding 1/10th volume of alamar Blue to the media incubating the cells. After 4 hr, the fluorescence signal from each well was read, with an excitation wavelength at 530 nm and an emission wavelength of 580 nm, using the Cytofluor Series 4000 (Perspective Biosystems).

[2] = target: HCV NS3/4A protease complex (Hepatitis C virus genotype 1a, UniProt P27958, C1454S/C1711G); assay: Recombinant HCV NS3/4A protease complex FRET peptide assay (strain not stated); format: biochemical; details: IC50, NS3/4A protease enzyme assay, strain not stated; activity ranges
From the text: The purpose of this in vitro assay was to measure the inhibition of HCV NS3 protease complexes, derived from the BMS, H77C or J416S strains, as described below, by compounds of the present invention.
Serum from an HCV-infected patient was obtained from Dr. T. Wright, San Francisco Hospital. An engineered full-length cDNA template of the HCV genome (BMS strain) was constructed from DNA fragments obtained by reverse transcription-PCR (RT-PCR) of serum RNA and using primers selected on the basis of homology between other genotype 1a strains. […] The infectious clones, H77C (1a genotype) and J4L6S (1b genotype) were obtained from R. Purcell (NIH) and the sequences are published in genebank (AAB67036, see Yanagi, M., Purcell, R. H., Emerson, S. U. and Bukh, J. Proc. Natl. Acad. Sci. U.S.A. 94(16),8738-8743 (1997); AF054247, see Yanagi, M., St Claire, M., Shapiro, M., Emerson, S. U., Purcell, R. H. and Bukh, J, Virology 244 (1), 161-172. (1998)).
The BMS, H77C and J4L6S strains were used for production of recombinant NS3/4A protease complexes. DNA encoding the recombinant HCV NS3/4A protease complex (amino acid 1027 to 1711) for these strains were manipulated as described by P. Gallinari et al. (see Gallinari P, Paolini C, Brennan D, Nardi C, Steinkuhler C, De Francesco R. Biochemistry. 38(17):5620-32, (1999)). Briefly, a three-lysine solubilizing tail was added at the 3′-end of the NS4A coding region. The cysteine in the P1 position of the NS4A-NS4B cleavage site (amino acid 1711) was changed to a glycine to avoid the proteolytic cleavage of the lysine tag. Furthermore, a cysteine to serine mutation was introduced by PCR at amino acid position 1454 to prevent the autolytic cleavage in the NS3 helicase domain. The variant DNA fragment was cloned in the pET21b bacterial expression vector and the NS3/4A complex was expressed in E. coli BL21 (DE3) following the protocol described by P. Gallinari et al. (see Gallinari P, Brennan D, Nardi C, Brunetti M, Tomei L, Steinkuhler C, De Francesco R., J Virol. 72(8):6758-69 (1998)) with modifications. Briefly, NS3/4A expression was induced with 0.5 mM IPTG for 22 hr at 20° C. […] The cells were resuspended in lysis buffer (10 mL/g) consisting of 25 mM HEPES, pH 7.5, 20% glycerol, 500 mM NaCl, 0.5% Triton-X100, 1 ug/ml lysozyme, 5 mM MgCl2, 1 ug/ml DNaseI 5 mM β-Mercaptoethanol (βME), Protease inhibitor—EDTA free, homogenized and incubated for 20 mins at 4° C. The homogenate was sonicated and clarified by ultra-centrifugation at 235000 g for 1 hr at 4° C. Imidazole was added to the supernatant to a final concentration of 15 mM and the pH adjusted to 8.0. The crude protein extract was loaded on a Ni-NTA column pre-equilibrated with buffer B (25 mM HEPES, pH 8.0, 20% glycerol, 500 mM NaCl, 0.5% Triton-X100, 15 mM imidazole, 5 mM βME). The sample was loaded at a flow rate of 1 mL/min. The column was washed with 15 column volumes of buffer C (same as buffer B except with 0.2% Triton-X100). The protein was eluted with 5 column volumes of 200 mM Imidazole in buffer.
NS3/4A protease complex-containing fractions were pooled and loaded on a desalting column Superdex-S200 pre-equilibrated with buffer D (25 mM HEPES, pH 7.5, 20% glycerol, 300 mM NaCl, 0.2% Triton-X100, 10 mM βME). Sample was loaded at a flow rate of 1 mL/min. NS3/4A protease complex-containing fractions were pooled and concentrated to approximately 0.5 mg/ml.

Chain of HCV NS3/4A protease complex (P27958 1027-1711, stated change not applied): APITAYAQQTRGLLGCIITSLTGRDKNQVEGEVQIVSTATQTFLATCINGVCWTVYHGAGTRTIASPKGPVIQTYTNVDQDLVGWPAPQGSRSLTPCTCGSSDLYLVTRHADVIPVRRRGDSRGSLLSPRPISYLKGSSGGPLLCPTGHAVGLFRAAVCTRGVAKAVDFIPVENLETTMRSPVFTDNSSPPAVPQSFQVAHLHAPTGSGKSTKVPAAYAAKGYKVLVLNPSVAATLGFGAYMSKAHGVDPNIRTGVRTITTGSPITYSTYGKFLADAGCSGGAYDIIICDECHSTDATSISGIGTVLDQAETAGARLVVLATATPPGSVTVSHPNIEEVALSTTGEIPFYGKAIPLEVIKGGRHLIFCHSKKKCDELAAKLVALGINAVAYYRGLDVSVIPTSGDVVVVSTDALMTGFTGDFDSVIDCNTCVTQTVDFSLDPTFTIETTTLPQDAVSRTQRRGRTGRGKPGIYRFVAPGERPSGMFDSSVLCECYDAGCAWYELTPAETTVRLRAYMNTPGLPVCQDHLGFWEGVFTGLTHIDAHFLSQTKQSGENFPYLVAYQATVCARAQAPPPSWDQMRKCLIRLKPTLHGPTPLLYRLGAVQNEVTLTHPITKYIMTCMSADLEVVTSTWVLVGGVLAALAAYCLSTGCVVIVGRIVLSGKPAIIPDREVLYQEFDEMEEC
Chain of HCV NS3/4A protease complex (P27958 1027-1711, stated change not applied): as above

## C=CC1C[C@]1(NC(=O)[C@@H]1C[C@@H](Oc2cc(-c3ccccc3)nc3cc(OC)ccc23)CN1C(=O)[C@@H](NC(=O)OC(C)(C)C)C(C)(C)C)C(=O)NS(=O)(=O)CC1CCC1 (stereo in doubt) [Compound 15, {1-[2-(1-Cyclobutylmethanesulfonylaminocarbonyl-2-vinylcyclopropylcarbamoyl)-4-(7-methoxy-2-phenylquinolin-4-yloxy)pyrrolidine-1-carbonyl]-2,2-dimethylpropyl}-carbamic acid tert-butyl ester]
[1]
  EC50: < 5000 nM
[2]
  IC50: < 500 nM

## C=CC1C[C@]1(NC(=O)[C@@H]1C[C@@H](Oc2cc(-c3ccccc3)nc3cc(OC)ccc23)CN1C(=O)[C@@H](NC(=O)OC(C)(C)C)C(C)(C)C)C(=O)NS(=O)(=O)CC1CC1 (stereo in doubt) [Compound 16, {1-[2-(1-Cyclopropylmethanesulfonylaminocarbonyl-2-vinylcyclopropylcarbamoyl)-4-(7-methoxy-2-phenylquinolin-4-yloxy)pyrrolidine-1-carbonyl]-2,2-dimethylpropyl}-carbamic acid tert-butyl ester]
[1]
  EC50: < 500 nM
[2]
  IC50: < 500 nM

## C=CC1C[C@]1(NC(=O)[C@@H]1C[C@@H](Oc2cc(-c3ccccc3)nc3cc(OC)ccc23)CN1C(=O)[C@@H](NC(=O)NC(C)(C)C)C(C)(C)C)C(=O)NS(=O)(=O)C1CC1 (stereo in doubt) [Compound 19, 1-[2-(3-tert-Butylureido)-3,3-dimethylbutyryl]-4-(7-methoxy-2-phenylquinolin-4-yloxy)pyrrolidine-2-carboxylic acid (1-cyclopropanesulfonylaminocarbonyl-2-vinylcyclopropyl)amide]
[1]
  EC50: < 50 nM
[2]
  IC50: < 50 nM

## C=CC1C[C@]1(NC(=O)[C@@H]1C[C@@H](Oc2cc(-c3ccccc3)nc3cc(OC)ccc23)CN1C(=O)[C@@H](NC(=O)N(CCC(F)(F)F)CC1CC1)C(C)(C)C)C(=O)NS(=O)(=O)C1CC1 (stereo in doubt) [Compound 20, 1-{2-[3-Cyclopropylmethyl-3-(3,3,3-trifluoropropyl)-ureido]-3,3-dimethylbutyryl}-4-(7-methoxy-2-phenyl-quinolin-4-yloxy)-pyrrolidine-2-carboxylic acid (1-cyclopropanesulfonylaminocarbonyl-2-vinyl-cyclopropyl)amide]
[1]
  EC50: < 500 nM
[2]
  IC50: < 50 nM

## CCC1C[C@]1(NC(=O)[C@@H]1C[C@@H](Oc2cc(-c3ccccc3)nc3cc(OC)ccc23)CN1C(=O)[C@@H](NC(=O)OC1CCCC1)C(C)C)C(=O)NS(=O)(=O)C1CC1 (stereo partly drawn) [Compound 6]
[1]
  EC50: < 50 nM
[2]
  IC50: < 50 nM

## CCOC(=O)N[C@H](C(=O)N1C[C@H](Oc2cc(-c3ccccc3)nc3cc(OC)ccc23)C[C@H]1C(=O)N[C@]1(C(=O)NS(=O)(=O)C2CC2)CC1CC)C(C)C (stereo partly drawn) [Compound 7]
[1]
  EC50: < 500 nM
[2]
  IC50: < 50 nM

## CCC1C[C@]1(NC(=O)C1C[C@@H](Oc2cc(-c3ccccc3)nc3cc(OC)ccc23)CN1C(=O)[C@@H](NC(=O)OCCF)C(C)C)C(=O)NS(=O)(=O)C1CC1 (stereo partly drawn) [Compound 9]
[1]
  EC50: < 500 nM
[2]
  IC50: < 50 nM

## C=CC1C[C@]1(NC(=O)[C@@H]1C[C@@H](Oc2cc(-c3ccccc3)nc3cc(OC)ccc23)CN1C(=O)[C@@H](NC(=O)OC(C)(C)C)C(C)(C)C)C(=O)NS(=O)(=O)c1ccc(Br)cc1 (stereo partly drawn) [Compound 17]
[1]
  EC50: < 500 nM
[2]
  IC50: < 500 nM

## C=CC1C[C@]1(NC(=O)[C@@H]1C[C@@H](Oc2cc(-c3ccccc3)nc3cc(OC)ccc23)CN1C(=O)[C@@H](NC(=O)O[C@H]1CCOC1)C(C)(C)C)C(=O)NS(=O)(=O)C1CC1 (stereo partly drawn) [Compound 18, {1-[2-(1-Cyclopropanesulfonylaminocarbonyl-2-vinylcyclopropylcarbamoyl)-4-(7-methoxy-2-phenyl-quinolin-4-yloxy)-pyrrolidine-1-carbonyl]-2,2-dimethyl-propyl}carbamic acid tetrahydrofuran-3(S)-yl ester]
[1]
  EC50: < 50 nM
[2]
  IC50: < 50 nM

## COc1ccc2c(O[C@@H]3CC(C(=O)NC4(C(=O)NS(=O)(=O)C5CC5)CC4)N(C(=O)[C@@H](NC(=O)OC(C)(C)C)C(C)C)C3)cc(-c3ccccc3)nc2c1 (stereo partly drawn) [Compound 21]
[1]
  EC50: < 5000 nM
[2]
  IC50: < 50 nM

## COc1ccc2c(O[C@@H]3C[C@@H](C(=O)NC4(C(=O)NS(=O)(=O)C5CC5)CCC4)N(C(=O)[C@@H](NC(=O)OC(C)(C)C)C(C)(C)C)C3)cc(-c3ccccc3)nc2c1 [Compound 22]
[1]
  EC50: < 500 nM
[2]
  IC50: < 50 nM

## C=CC1C[C@]1(NC(=O)[C@@H]1C[C@@H](Oc2cc(-c3ccccc3)nc3cc(OC)ccc23)CN1C(=O)[C@@H](NC(=O)OC(C)(C)C)C(C)(C)C)C(=O)NS(=O)(=O)CCCC (stereo partly drawn) [Compound 23]
[1]
  EC50: < 500 nM
[2]
  IC50: < 50 nM

## C=CC1C[C@]1(NC(=O)[C@@H]1C[C@@H](Oc2cc(-c3ccccc3)nc3cc(OC)ccc23)CN1C(=O)[C@@H](NC(=O)OC(C)(C)C)C(C)CC)C(=O)NS(=O)(=O)C1CC1 (stereo partly drawn) [Compound 24]
[1]
  EC50: < 500 nM
[2]
  IC50: < 500 nM

## C=CC1C[C@]1(NC(=O)[C@@H]1C[C@@H](Oc2cc(-c3ccccc3)nc3cc(OC)ccc23)CN1C(=O)[C@@H](NC(=O)OC(C)(C)C)C(C)(C)C)C(=O)NS(=O)(=O)CC (stereo partly drawn) [Compound 25]
[1]
  EC50: < 500 nM
[2]
  IC50: < 50 nM

## C=CC1C[C@]1(NC(=O)[C@@H]1C[C@@H](Oc2cc(-c3ccccc3)nc3cc(OC)ccc23)CN1C(=O)[C@@H](NC(=O)OC(C)(C)C)C(C)(C)C)C(=O)NS(=O)(=O)CCC (stereo partly drawn) [Compound 26]
[1]
  EC50: < 500 nM
[2]
  IC50: < 50 nM
